Counter-ions that a name gives are not always drawn. Like-named read-outs stand apart in the source and are kept apart here.
Key:
[1] = Pharmacokinetics of the enantiomers of idazoxan in healthy male subjects; conditions: for AUC0-∞ of R(−) idazoxan / AUC0-∞ of S(+) idazoxan / CLtot/F of R(−) idazoxan / CLtot/F of S(+) idazoxan / Cmax of R(−) idazoxan / Cmax of S(+) idazoxan / Tmax of R(−) idazoxan / Tmax of S(+) idazoxan / t1/2 of R(−) idazoxan / t1/2 of S(+) idazoxan: single administration of the racemate (20 mg) or of the enantiomer alone (10 mg)
Description: Young healthy male subjects were allocated at random to receive a single dose of each of the following substances on one occasion: 20 mg of idazoxan racemate (polymorph of form I); 10 mg of the R(−) enantiomer; 10 mg of the S(+) enantiomer.

[2] = ICH criteria
[3] = Solubility in various solvents
[4] = test system: hypothermia induced by guanabenz; assay: Inhibition of the hypothermia induced by guanabenz; format: in vivo, mice; conditions: initially, without preincubation
Description: (§1) The binding values of the α2-adrenoreceptors for the two enantiomers were evaluated using rat cortical tissue. In addition, the biological activity was evaluated by the inhibition of the hypothermia induced by guanabenz in mice.

α2-adrenoreceptors = assay: α2-adrenoreceptor binding in rat cortical tissue; conditions: initially, without preincubation
Description: as §1

Compound	AUC0-∞ of R(−) idazoxan [1] [ng·h/mL]	AUC0-∞ of S(+) idazoxan [1] [ng·h/mL]	CLtot/F of R(−) idazoxan [1] [L/h]	CLtot/F of S(+) idazoxan [1] [L/h]	Cmax of R(−) idazoxan [1] [ng/mL]	Cmax of S(+) idazoxan [1] [ng/mL]	Tmax of R(−) idazoxan [1] [h]	Tmax of S(+) idazoxan [1] [h]	t1/2 of R(−) idazoxan [1] [h]	t1/2 of S(+) idazoxan [1] [h]	other results
Cl.c1ccc2c(c1)OCC(C1=NCCN1)O2 (stereo not drawn) [Form I]	58 ± 23	44 ± 21	170 ± 76	245 ± 136	11.9 ± 4.6	8.3 ± 3.6	2.1 ± 0.7	2.1 ± 0.7	3.3 ± 0.4	3.3 ± 0.4	photostability [2]: no decomposition; solubility in water ([3]; batches of the form I): Freely soluble; solubility in ethanol ([3]; batches of the form I, listed as 503): Soluble; Long-term stability (25° C./60% RH, listed as 500): 24 months; Long-term stability (25° C./60% RH, listed as 501): 24 months; Long-term stability (25° C./60% RH, listed as 503): 9 months; Long-term stability (25° C./60% RH, listed as 504): 9 months; Long-term stability (25° C./60% RH, listed as OP2): 24 months; Long-term stability (30° C./70% RH, listed as 500): 24 months; Long-term stability (30° C./70% RH, listed as 501): 24 months; Long-term stability (30° C./70% RH, listed as 503): 6 months; Long-term stability (30° C./70% RH, listed as 504): 6 months; Long-term stability (30° C./70% RH, listed as OP2): 24 months; Long-term stability (40° C./75% RH, listed as 500): 6 months; Long-term stability (40° C./75% RH, listed as 501): 6 months; Long-term stability (40° C./75% RH, listed as 503): 6 months; Long-term stability (40° C./75% RH, listed as 504): 6 months; Long-term stability (40° C./75% RH, listed as OP2): 9 months
c1ccc2c(c1)OCC(C1=NCCN1)O2 (stereo not drawn) [Idazoxan hydrochloride, 2-(2-imidazolinyl)-1,4-benzodioxane hydrochloride]	–	–	–	–	–	–	–	–	–	–	solubility in ethanol ([3]; powder): soluble to fairly soluble; solubility in methanol ([3]; powder): readily soluble; solubility in water ([3]; powder): readily soluble
c1ccc2c(c1)OC[C@@H](C1=NCCN1)O2 [R(−) Idazoxan]	43 ± 19	14 ± 8	230 ± 92	–	10.2 ± 3.9	1.6 ± 1.0	2.5 ± 0.5	4.0 ± 0	3.1 ± 0.6	4.1 ± 0.5	–
c1ccc2c(c1)OC[C@H](C1=NCCN1)O2 [S(+)Idazoxan]	11 ± 6	27 ± 13	–	397 ± 205	1.3 ± 0.7	7.2 ± 5.1	3.7 ± 0.5	2.1 ± 0.8	3.7 ± 0.4	7.8 ± 0.5	effectiveness in the antagonism of the hypothermia relative to the R(−) form [4]: 15 times; apparent clearance relative to the R(−) enantiomer ([1]; human, in vivo): approximately 1.5 times; distribution relative to the R(−) enantiomer ([1]; human, in vivo): approximately 1.5 times; t1/2 for conversion of S(+) to R(−) ([1]; in vivo): 4 h; binding affinity relative to the R(−) form (α2-adrenoreceptors): ten times greater

— US8476307B2, “Pharmaceutical composition based on idazoxan, salts, hydrates or polymorphs thereof” (Pierre Fabre Medicament, priority 2003, dated 2013)
